# In ChEMBL document CHEMBL1212709, “Design of isoform-selective phospholipase D inhibitors that modulate cancer cell invasiveness” (Nat Chem Biol, 2009):
# Columns and labels:
# [1] = molecular target: T1, Phospholipase D2 (Homo sapiens, UniProt O14939); experiment: Inhibition of GFP-tagged human PLD2 expressed in human HEK293 cells assessed as decrease in phosphatidylbutanol-[d9] production after 30 mins by mass spectrometric analysis; format: cell-based
# [2] = molecular target: T2, Phospholipase D1 (Homo sapiens, UniProt Q13393); experiment: Inhibition of human PLD1 assessed as release of methyl-[3H]choline from choline-methyl-[3H]dipalmitoylphosphatidylcholine after 30 mins by exogenous substrate assay
# T2 sequence (Q13393 whole entry): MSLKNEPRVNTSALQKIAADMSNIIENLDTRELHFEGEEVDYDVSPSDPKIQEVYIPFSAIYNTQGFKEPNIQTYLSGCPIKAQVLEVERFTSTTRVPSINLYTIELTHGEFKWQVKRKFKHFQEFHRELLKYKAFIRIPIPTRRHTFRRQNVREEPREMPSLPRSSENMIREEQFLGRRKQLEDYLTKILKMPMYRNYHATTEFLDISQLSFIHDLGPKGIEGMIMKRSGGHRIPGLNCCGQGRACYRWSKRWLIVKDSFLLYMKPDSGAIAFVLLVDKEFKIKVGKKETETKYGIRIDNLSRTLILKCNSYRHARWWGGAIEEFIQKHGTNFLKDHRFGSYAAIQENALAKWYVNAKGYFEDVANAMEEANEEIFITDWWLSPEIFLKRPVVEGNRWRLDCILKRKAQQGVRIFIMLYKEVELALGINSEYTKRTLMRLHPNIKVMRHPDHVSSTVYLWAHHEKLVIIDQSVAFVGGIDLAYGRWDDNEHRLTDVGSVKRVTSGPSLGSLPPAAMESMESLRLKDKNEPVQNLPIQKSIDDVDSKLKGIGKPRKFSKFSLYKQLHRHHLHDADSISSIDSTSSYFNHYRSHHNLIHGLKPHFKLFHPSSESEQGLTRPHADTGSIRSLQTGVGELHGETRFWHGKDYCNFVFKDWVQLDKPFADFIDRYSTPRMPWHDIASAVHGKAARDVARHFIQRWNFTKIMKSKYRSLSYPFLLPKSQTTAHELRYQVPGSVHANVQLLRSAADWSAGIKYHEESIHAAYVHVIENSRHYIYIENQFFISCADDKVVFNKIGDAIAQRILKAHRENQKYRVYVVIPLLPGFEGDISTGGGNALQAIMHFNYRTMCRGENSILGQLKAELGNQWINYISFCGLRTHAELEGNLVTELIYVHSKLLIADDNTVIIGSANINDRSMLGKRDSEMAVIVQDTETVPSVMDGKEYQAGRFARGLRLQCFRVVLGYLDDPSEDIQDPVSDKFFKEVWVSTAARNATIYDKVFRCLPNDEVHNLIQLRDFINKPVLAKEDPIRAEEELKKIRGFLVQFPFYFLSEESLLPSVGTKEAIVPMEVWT
# [3] = molecular target: T3, Phospholipase D1 (Rattus norvegicus, UniProt P70496); experiment: Inhibition of N-terminally truncated rat PLD1 assessed as release of methyl-[3H]choline from choline-methyl-[3H]dipalmitoylphosphatidylcholine after 30 mins by exogenous substrate assay
# T3 sequence (P70496 whole entry): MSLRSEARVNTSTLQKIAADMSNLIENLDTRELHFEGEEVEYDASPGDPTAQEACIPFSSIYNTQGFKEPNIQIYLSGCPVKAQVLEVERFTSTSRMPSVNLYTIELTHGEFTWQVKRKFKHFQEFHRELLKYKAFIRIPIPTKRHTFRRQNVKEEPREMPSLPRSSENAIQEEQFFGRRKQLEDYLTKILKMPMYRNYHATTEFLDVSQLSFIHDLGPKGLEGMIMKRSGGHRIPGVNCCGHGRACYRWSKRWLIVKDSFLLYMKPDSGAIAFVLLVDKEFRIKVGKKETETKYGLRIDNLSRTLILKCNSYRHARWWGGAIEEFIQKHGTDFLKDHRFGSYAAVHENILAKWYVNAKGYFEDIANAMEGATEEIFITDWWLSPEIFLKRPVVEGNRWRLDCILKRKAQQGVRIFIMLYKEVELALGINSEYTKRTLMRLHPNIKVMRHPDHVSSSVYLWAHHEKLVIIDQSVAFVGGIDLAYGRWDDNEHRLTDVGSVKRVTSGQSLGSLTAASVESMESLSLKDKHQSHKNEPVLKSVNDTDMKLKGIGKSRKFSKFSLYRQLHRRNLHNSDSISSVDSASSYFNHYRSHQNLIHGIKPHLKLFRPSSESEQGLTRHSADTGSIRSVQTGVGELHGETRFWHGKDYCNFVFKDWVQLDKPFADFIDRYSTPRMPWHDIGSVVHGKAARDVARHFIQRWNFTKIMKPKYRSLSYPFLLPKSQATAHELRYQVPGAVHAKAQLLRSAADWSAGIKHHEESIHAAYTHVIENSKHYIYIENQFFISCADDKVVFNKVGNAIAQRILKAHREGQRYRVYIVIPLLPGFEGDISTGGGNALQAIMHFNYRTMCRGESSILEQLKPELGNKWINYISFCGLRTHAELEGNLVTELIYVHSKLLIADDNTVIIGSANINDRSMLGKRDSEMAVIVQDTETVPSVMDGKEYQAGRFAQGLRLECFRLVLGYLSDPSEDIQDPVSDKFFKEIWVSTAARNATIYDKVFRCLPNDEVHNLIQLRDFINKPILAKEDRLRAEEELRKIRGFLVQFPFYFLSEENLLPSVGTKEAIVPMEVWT
# [4] = molecular target: T2, Phospholipase D1
# [5] = molecular target: T1, Phospholipase D2; experiment: Inhibition of human PLD2 assessed as release of methyl-[3H]choline from choline-methyl-[3H]dipalmitoylphosphatidylcholine after 30 mins by exogenous substrate assay
# [6] = Inhibition of PLD
# [7] = Inhibition of in Streptomyces chromofuscus PLD
# [8] = molecular target: T2, Phospholipase D1; experiment: Inhibition of human PLD1b
# T1 sequence (O14939 whole entry): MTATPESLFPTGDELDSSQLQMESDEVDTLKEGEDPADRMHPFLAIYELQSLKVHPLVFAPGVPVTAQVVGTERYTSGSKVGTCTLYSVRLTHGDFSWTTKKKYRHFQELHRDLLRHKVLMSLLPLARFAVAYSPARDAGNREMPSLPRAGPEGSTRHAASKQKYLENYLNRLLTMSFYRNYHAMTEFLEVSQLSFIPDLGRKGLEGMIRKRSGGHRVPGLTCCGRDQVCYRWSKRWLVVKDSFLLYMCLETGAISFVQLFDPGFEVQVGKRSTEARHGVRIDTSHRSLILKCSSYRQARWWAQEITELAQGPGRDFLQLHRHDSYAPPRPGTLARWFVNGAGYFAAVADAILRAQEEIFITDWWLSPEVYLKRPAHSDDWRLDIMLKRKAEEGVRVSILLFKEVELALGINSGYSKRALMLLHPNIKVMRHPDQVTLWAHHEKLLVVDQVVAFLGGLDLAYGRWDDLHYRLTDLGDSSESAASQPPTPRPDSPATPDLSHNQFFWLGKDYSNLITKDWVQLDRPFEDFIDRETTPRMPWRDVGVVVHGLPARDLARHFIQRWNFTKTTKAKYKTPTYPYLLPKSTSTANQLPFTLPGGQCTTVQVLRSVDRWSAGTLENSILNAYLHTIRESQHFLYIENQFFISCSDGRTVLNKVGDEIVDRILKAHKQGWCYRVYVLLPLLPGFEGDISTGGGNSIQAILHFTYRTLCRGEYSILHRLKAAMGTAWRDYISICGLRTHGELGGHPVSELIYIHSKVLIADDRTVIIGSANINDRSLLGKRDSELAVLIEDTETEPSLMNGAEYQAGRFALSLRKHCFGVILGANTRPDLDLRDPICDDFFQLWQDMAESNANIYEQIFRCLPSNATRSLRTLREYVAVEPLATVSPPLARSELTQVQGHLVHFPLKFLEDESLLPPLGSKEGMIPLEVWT
SMILES,IC50 [1],IC50 [2],IC50 [3],IC50 [4],IC50 [5],IC50 [6],IC50 [7],IC50 [8]
O=C(NCCN1CCC(n2c(=O)[nH]c3ccccc32)CC1)c1cc(Br)c(Br)o1,220 nM,79 nM,2900 nM,8.9 nM,170 nM,–,–,–
O=C(NCCN1CCC(n2c(O)nc3ccccc32)CC1)c1cccc2c1-c1ccccc1C2=O,1000 nM,260 nM,1100 nM,20 nM,600 nM,–,–,–
O=C(NCCN1CCC(n2c(O)nc3ccccc32)CC1)c1ccc(Cl)c(Cl)c1,220 nM,46 nM,910 nM,19 nM,250 nM,–,–,–
O=C(NCCN1CCC(n2c(O)nc3ccccc32)CC1)c1ccc(Cl)cc1,140 nM,55 nM,910 nM,6.3 nM,130 nM,–,–,–
COc1ccc(C(=O)NCCN2CCC(n3c(=O)[nH]c4ccccc43)CC2)cc1,1100 nM,15000 nM,> 20000 nM,1000 nM,> 20000 nM,–,–,–
O=C(NCCN1CCC(n2c(=O)[nH]c3ccccc32)CC1)n1c2ccccc2c2ccccc21,260 nM,300 nM,7200 nM,330 nM,1000 nM,–,–,–
O=C(c1ccc(F)cc1)N(CCN1CCC(n2c(=O)[nH]c3ccccc32)CC1)C(=O)c1ccc(F)cc1,470 nM,1400 nM,870 nM,48 nM,2200 nM,–,–,–
Cc1ccc(C(=O)NCCN2CCC(n3c(O)nc4ccccc43)CC2)cc1,210 nM,780 nM,1700 nM,32 nM,1100 nM,–,–,–
C=Cc1ccc(C(=O)NCCN2CCC(n3c(=O)[nH]c4ccccc43)CC2)cc1,–,540 nM,–,79 nM,–,–,–,–
O=C(NCCN1CCC(n2c(=O)[nH]c3ccccc32)CC1)c1ccc[nH]1,340 nM,316 nM,1500 nM,37 nM,1200 nM,–,–,–
O=C(NCCN1CCC(n2c(=O)[nH]c3ccccc32)CC1)c1cc(Cl)cc(Cl)c1,1100 nM,400 nM,3500 nM,85 nM,1900 nM,–,–,–
O=C(NCCN1CCC2(CC1)C(=O)NCN2c1ccccc1)c1ccc(C(F)(F)F)cc1,–,–,> 20000 nM,–,4300 nM,–,–,–
CCC(=C(c1ccc(O)cc1)c1ccc(OCCN(C)C)cc1)c1ccccc1,–,–,28000 nM,4800 nM,–,–,–,–
O=C(NCCN1CCC(n2c(=O)[nH]c3ccccc32)CC1)c1cc2cc(F)ccc2[nH]1,–,9.5 nM,33 nM,1 nM,17 nM,–,–,–
O=C(NCCN1CCC(n2c(=O)[nH]c3ccccc32)CC1)c1cc2ccccc2s1,210 nM,100 nM,1000 nM,14 nM,340 nM,–,–,–
O=C(NCCN1CCC2(CC1)C(=O)NCN2c1ccccc1)c1ccc2ccccc2c1,–,–,> 20000 nM,–,–,–,–,–
O=C(c1ccc(OCCN2CCCCC2)cc1)c1c(-c2ccc(O)cc2)sc2cc(O)ccc12 [RALOXIFENE],10000 nM,4300 nM,> 20000 nM,8500 nM,3400 nM,–,–,–
Oc1ccc(/C=C/c2cc(O)cc(O)c2)cc1 [RESVERATROL],–,–,–,–,–,> 60000 nM,–,–
CC(C)=CCC/C(C)=C/CC/C(C)=C/[C@H]1[C@H](COP(=O)(O)OP(=O)(O)O)[C@@]1(C)CC/C=C(\C)CCC=C(C)C [Z-PSDP],–,–,–,–,–,–,100 nM,> 1000 nM
